Experimental data reported in ChEMBL document CHEMBL1127036, “Design of antineoplastic agents on the basis of the "2-phenylnaphthalene-type" structural pattern. 2. Synthesis and biological activity studies of benzo]b]naphtho[2,3-d]furan-6,11-dione derivatives” (J Med Chem, 1993).
Activity calls are given as the source filed them. The rule behind the calls is not given here.

Key:
Assay type in all cases: functional, cell-based
N592 = assay: Cytotoxicity against human small-cell lung cancer (SCLC)
[1] = Cytotoxicity against human SCLC cells resistant to cisplatin (SCLC/CDDP)
HL-60 = assay: Tested for inhibition against human promyelocytic leukemia cells (HL-60 )
Tumor Cell line [2] = assay: Tested for the inhibition of human cancer cell growth (NCI drug-discovery screen.)
Tumor Cell line [3] = assay: Tested for the inhibition of human cancer cell growth (NCI drug-discovery screen.); Inactive
CCRF-CEM [4] = assay: Tested for inhibition against CEM/MDR (multidrug resistant) cells; conditions: Homo sapiens
CCRF-CEM [5] = assay: Tested for inhibition against CEM cells; conditions: Homo sapiens

Compound	IC50 (N592; Homo sapiens, N592) [nM]	IC50 ([1]; Homo sapiens, SCLC) [nM]	IC50 (HL-60) [nM]	IC50 (Tumor Cell line [2]) [nM]	Log IC50 (Tumor Cell line [3])	IC50 (CCRF-CEM [4]) [nM]	IC50 (CCRF-CEM [5]) [nM]	IC50 (N592; n592) [nM]	IC50 ([1]; sclc) [nM]
COc1cc([C@@H]2c3cc4c(cc3[C@@H](O[C@@H]3O[C@@H]5CO[C@@H](C)O[C@H]5[C@H](O)[C@H]3O)[C@H]3COC(=O)[C@H]23)OCO4)cc(OC)c1O [ETOPOSIDE]	500	1300	–	–	–	–	–	–	–
CC[C@]1(O)C[C@@H]2CN(CCc3c([nH]c4ccccc34)[C@@](C(=O)OC)(c3cc4c(cc3OC)N(C)[C@H]3[C@@](O)(C(=O)OC)[C@H](OC(C)=O)[C@]5(CC)C=CCN6CC[C@]43[C@@H]65)C2)C1 [VINBLASTINE]	4	5	–	–	–	–	–	–	–
O=C1c2c(O)ccc(O)c2C(=O)c2c(NCCNCCO)ccc(NCCNCCO)c21 [MITOXANTRONE]	20	30	–	–	–	–	–	–	–
O=C1c2ccccc2C(=O)c2c1oc1cc(O)ccc21	> 3800	> 3800	7780	10000	–	–	–	–	–
CN(C)CCCOc1cc2oc3c(c2c2ccccc12)C(=O)c1ccccc1C3=O	> 2500	> 2500	1390	–	inactive	–	–	–	–
COc1cccc2c1C(=O)c1c(O)c3c(c(O)c1C2=O)C[C@@](O)(C(=O)CO)C[C@@H]3O[C@H]1C[C@H](N)[C@H](O)[C@H](C)O1 [DOXORUBICIN]	40	30	–	–	–	–	–	–	–
CN(C)CCOc1cc2oc3c(c2cc1Cl)C(=O)c1ccccc1C3=O	370	620	240	1000	–	300	250	–	–
O=C1c2ccccc2C(=O)c2c1oc1cc(O)c3ccccc3c21	> 3200	> 3200	80600	–	–	–	–	–	–
CCN(CC)CCOc1cc(O)c2c3c(oc2c1)C(=O)c1ccccc1C3=O	240	480	98	100	–	–	–	–	–
CN(C)CCOc1ccc2c3c(oc2c1)C(=O)c1ccccc1C3=O	730	940	300	10000	–	150	200	–	–
CN(C)CCOc1cc2oc3c(c2c2ccccc12)C(=O)c1ccccc1C3=O	1300	1950	870	–	inactive	–	–	–	–
CN(C)CCOc1cc(O)c2c3c(oc2c1)C(=O)c1ccccc1C3=O	2130	2560	46	100	–	–	–	–	–
O=c1[nH]cc(F)c(=O)[nH]1 [FLUOROURACIL]	5400	8400	–	–	–	–	–	–	–
Cc1cc(O)cc2oc3c(c12)C(=O)c1ccccc1C3=O	> 3500	> 3500	6650	–	inactive	–	–	–	–
O=C1c2ccccc2C(=O)c2c1oc1cc(O)c(Cl)cc21	> 3400	> 3400	6090	10000	–	–	–	–	–
Cc1cc(OCCN(C)C)cc2oc3c(c12)C(=O)c1ccccc1C3=O	> 2600	> 2600	1800	–	–	–	–	–	–
CN(C)CCCOc1cc(O)c2c3c(oc2c1)C(=O)c1ccccc1C3=O	680	680	45	100	–	–	–	–	–
CISPLATIN	–	–	–	–	–	–	–	670	6700
CN(C)CCCOc1cc2oc3c(c2cc1Cl)C(=O)c1ccccc1C3=O	590	590	280	10000	–	150	170	–	–
CC(C)N(CCOc1cc(O)c2c3c(oc2c1)C(=O)c1ccccc1C3=O)C(C)C	220	1130	89	1000	–	–	–	–	–
CN(C)CCCOc1ccc2c3c(oc2c1)C(=O)c1ccccc1C3=O	1300	2600	340	10000	–	–	–	–	–
O=C1c2ccccc2C(=O)c2c1oc1cc(O)cc(O)c21	1030	1280	220	1000	–	600	500	–	–
O=C1c2ccccc2C(=O)c2c1oc1cc3c(cc21)OCO3	> 40300	> 40300	> 100000	–	–	–	–	–	–
